Measurements published in US20230321185A1, “METHOD FOR TREATMENT OF TYPE-1 DIABETES IN A SUBJECT IN NEED THEREOF” (priority 2021, published 2023).

Columns and labels:
Assay type in all cases: in vivo, Balb/c mice
[1] = tested on: PAX4; experiment: Western blot of pancreatic PAX4; conditions: normal mice, vs normal control group
Description: (§1) Each of the normal (N) (n=20) and diabetic (D) (n=20) groups was divided into four subgroups. The first group (N1 and D1) (n=5) received 6.7 mg/kg intraperitoneally growth hormone for two weeks. The second group (N2 and D2) (n=5) administrated 0.185 mg/kg intraperitoneally magainin II for approximately four weeks. The third group (N3 and D3) (n=5) first received 0.185 mg/kg of magainin II for four weeks, and then 6.7 mg/kg of growth hormone for two weeks. Finally, the fourth group (N4 and D4) (n=5) received only an equal volume of physiological saline instead of these treatments.
(§2) Proteins were extracted in RIPA buffer which are containing Tris-HCl buffer (100 mM, pH 7.5), ethylene diamine tetra acetic acid (EDTA, 10 mM), sodium pyrophosphate (10 mM), sodium fluoride (0.1 mM), sodium orthovanadate (10 mM), phenylmethylsulphonyl fluoride (PMSF, 2 mM), and aprotinin (10 mg/ml). The pancreas extracts were vortexed for 30 min frequently at 4° C. The homogenates were centrifuged at 12,000 rpm for 20 min at 4° C. The supernatants were stored in an −80° C. freezer. Total protein concentration was determined by the Lowry method. […]
(§3) All values are depicted as mean±SEM and considered significant if p<0.05. […] Data were analyzed using GraphPad Prism software and the results of groups were compared with the ANOVA test.

[2] = tested on: P-ERK; experiment: Western blot of pancreatic P-ERK; conditions: normal mice, vs N4 (saline)
Description: as §1, §2, §3

[3] = tested on: insulin+ and glucagon+ cells of pancreatic islets; experiment: Immunohistochemistry of pancreas sections, insulin+ and glucagon+ cells; conditions: type 1 diabetic mice
Description: as §1
Fixed tissue in 4% paraformaldehyde for 30 min at 4° C., embedded in paraffin and applied to slides. The prepared 6-μm sections were assayed as described previously. The following primary antibodies were used in these assays: rabbit anti-insulin antibody (ab63820) (1/500), mouse anti-glucagon antibody sc-514592 (1/500), mouse anti-vimentin antibody sc-6260 (1/500), rabbit recombinant anti-Ki67 (ab197547) (1/500), rat anti-CD3 antibody (ab11089) (1/500), mouse anti-CD19 antibody (sc-373897) (1/500). […]
as §3

[4] = tested on: P-STAT5; experiment: Western blot of pancreatic P-STAT5; conditions: for P-STAT5 expression increase in comparison with control group: diabetic mice, vs D4 (saline); for P-STAT5 expression increase compared with control group: normal mice, vs N4 (saline)
Description: as §1
(§4) Proteins were extracted in RIPA buffer which are containing Tris-HCl buffer (100 mM, pH 7.5), ethylene diamine tetra acetic acid (EDTA, 10 mM), sodium pyrophosphate (10 mM), sodium fluoride (0.1 mM), sodium orthovanadate (10 mM), phenylmethylsulphonyl fluoride (PMSF, 2 mM), and aprotinin (10 mg/ml). The pancreas extracts were vortexed for 30 min frequently at 4° C. The homogenates were centrifuged at 12,000 rpm for 20 min at 4° C. The supernatants were stored in an −80° C. freezer. Total protein concentration was determined by the Lowry method.
(§5) De-freeze sample was added to loading buffer and dithiothreitol 0.5 M solution, then heated for 5 min at 95° C. Sodium dodecyl sulfate-polyacrylamide gel electrophoresis (SDS PAGE) and then protein transfer to a polyvinylidene difluoride (PVDF) blotting membrane was performed. […] Finally, a result image was developed based on Western Blot-ECL ([…]) Development Protocol.
(§6) All values are depicted as mean±SEM and considered significant if p<0.05. The arbitrary optical density unit was acquired using ImageJ software (version 1.46). Data were analyzed using GraphPad Prism software and the results of groups were compared with the ANOVA test.

[5] = Glucose tolerance test (GTT) at the end of the treatment; conditions: for effect on blood glucose levels both in FBS and GTT: diabetic mice
Description: as §1
(§7) FBS measurements before the treatment and weekly during the treatment, and glucose tolerance test (GTT) at the end of the treatment were performed. The pancreatic tissue was quickly removed and placed in a cold phosphate buffer saline (PBS). Some of the extracted tissues for additional tests were stored in a freezer (−80° C.) and some were immersed in 4% paraformaldehyde (PFA) for immunohistochemical staining.
(§8) FBS levels were measured after fasting mice for 6 h (7:00-13:00) with an Accu-Chek glucometer via tail vein. Also in the glucose tolerance test, six hours after the mice were deprived of food (7:00-13:00), the first FBS was measured and after that mouse administrated glucose (2 g/kg bodyweight, intraperitoneally), and then at the indicated time points post-injection, blood glucose levels were measured.

[6] = tested on: P-S6; experiment: Western blot of pancreatic P-S6 (mTOR pathway activity)
Description: as §1, §4, §5, §6
The activity of mTOR pathway was appraised by evaluating the changes in ribosomal P-S6 expression. As a downstream factor of the mTOR pathway, results of pancreatic P-S6 expression in all treated diabetic and normal mice were compared with their control groups. Therefore, changes in P-S6 expression proportionally reflects the activity of mTOR pathway. […] Consequently, GH pulsatile secretion and temporally treatment period in this study via transient increase in mTOR activity can induce and enhance anabolic growth during the treatment, such as cell growth, ribosomal biogenesis, and protein synthesis.

[7] = Fasting blood sugar (FBS) in normal and STZ-induced type 1 diabetic mice; conditions: STZ-induced type 1 diabetic mice, IP; for mean percentage of FBS changes decreased by: end of treatment, value is a decrease (untreated D4 increased by 49.23%)
Description: In a 14-day period, diabetes type 1 was induced in a group of mice via injecting multiple low doses of Streptozotocin (STZ). Also, the other group of mice received an equal volume of citrate buffer (pH 4.5) intraperitoneally (I.P.) in the same procedure that was called the normal group.
as §1, §7
Diabetes type 1 was induced in a group of mice via injecting multiple low doses of Streptozotocin (STZ) (40 mg/kg, intraperitoneal) for five consecutive days. The STZ dissolved in the 50 mM sodium citrate buffer (pH 4.5) to a final concentration of 4 mg/ml, immediately prior to injection. Nine days after the last STZ injection, all the mice have their FBS (fasting blood sugar) over 200 mg/dl were considered as type 1 diabetic mice group.
as §8
The fasting blood sugars of mice in all diabetic and normal groups were measured before the treatment and weekly during the treatments. At the end of the treatments, the percentage of FBS changes were calculated. The average percentage of FBS alterations in each group was then determined. Finally, the average result of each group was compared and analyzed with other groups by prism software.

Substance: GH: Human Growth Hormone produced by EXIR under the brand name Exitropin 4 IU (1.3 mg) (Somatropin), lyophilized powder
- Pax4 expression increase in comparison with control group [1]: ~135%
- P-ERK expression increase in comparison with control group [2]: no significant difference
- beta cell regeneration [3]: effective beta cell regeneration
- P-STAT5 expression increase in comparison with control group [4]: not statistically significant
- P-STAT5 expression increase compared with control group [4]: slight and non-significant increase
- effect on blood glucose levels both in FBS and GTT [5]: less attenuating effect
- blood sugar course in GTT ([5]; normal mice, glucose 2 g/kg IP): higher than in other normal groups
- P-S6 expression increase in comparison with control group ([6]; diabetic mice, vs D4 (saline)): no significant difference
- P-S6 expression increase in comparison with control group ([6]; normal mice, vs N4 (saline)): slight and not significant
- approximate improvement rate of fasting blood sugar in comparison with untreated control diabetic group [7]: ~57.43%
- mean percentage of FBS changes decreased by [7]: 8.2%

Substance: GIGKFLHSAKKFGKAFVGEIMNS (listed as Xenopus laevis) [magainin, cationic, amphipathic, a-helical antimicrobial peptide with twenty-three amino acids, synthesized by Biomatik]
- Pax4 expression increase in comparison with control group [1]: ~125%
- P-ERK expression increase in comparison with control group [2]: no significant difference
- beta cell regeneration [3]: effective beta cell regeneration
- P-STAT5 expression increase in comparison with control group [4]: not statistically significant
- P-STAT5 expression increase compared with control group [4]: slight and non-significant increase
- effect on blood glucose levels both in FBS and GTT [5]: greatest effect on reducing blood sugar
- P-S6 expression increase in comparison with control group ([6]; diabetic mice, vs D4 (saline)): no significant difference
- P-S6 expression increase in comparison with control group ([6]; normal mice, vs N4 (saline)): slight and not significant
- approximate improvement rate of fasting blood sugar in comparison with untreated control diabetic group [7]: ~97.13%
- mean percentage of FBS changes decreased by [7]: 47.9%
